Data from ChEMBL document CHEMBL2062378, “Antimycobacterial activity: a facile three-component [3+2]-cycloaddition for the regioselective synthesis of highly functionalised dispiropyrrolidines” (Bioorg Med Chem Lett, 2012).
Converted amounts (≈) assume the structure as drawn.

Legend:
[1] = test system: Mycobacterium tuberculosis; test: Antimycobacterial activity against Mycobacterium tuberculosis H37Rv ATCC 27294 by alamar blue broth microdilution assay; type: functional
Vero = test: Cytotoxicity against african green monkey Vero cells after 72 hrs by MTT assay; type: cell-based; conditions: Chlorocebus sabaeus

SMILES: CN1CC(c2ccc(Cl)cc2)C2(Cc3ccccc3C2=O)C12C(=O)c1ccccc1C2=O (stereo unspecified)
- MIC90 [1]: 1.2 µM (≈ 0.528 µg/mL)
- IC50 (Vero): > 62.5 µg/mL

SMILES: NNC(=O)c1ccncc1 [ISONIAZID]
- MIC90 [1]: 0.73 µM (≈ 0.1 µg/mL)
- IC50 (Vero): > 62.5 µg/mL

SMILES: CN1CC(c2ccccc2)C2(Cc3ccccc3C2=O)C12C(=O)c1ccccc1C2=O (stereo unspecified)
- MIC90 [1]: 6.22 µM (≈ 2.53 µg/mL)
- IC50 (Vero): > 62.5 µg/mL

SMILES: CN1CC(c2ccc(N3CCOCC3)cc2)C2(Cc3ccccc3C2=O)C12C(=O)c1ccccc1C2=O (stereo unspecified)
- MIC90 [1]: 1.22 µM (≈ 0.598 µg/mL)
- IC50 (Vero): > 62.5 µg/mL

SMILES: CN1CC(c2ccc(C(=O)O)cc2)C2(Cc3ccccc3C2=O)C12C(=O)c1ccccc1C2=O (stereo unspecified)
- MIC90 [1]: 0.295 µM (≈ 0.133 µg/mL)
- IC50 (Vero): > 62.5 µg/mL

SMILES: CN1CC(c2ccc(Br)cc2)C2(Cc3ccccc3C2=O)C12C(=O)c1ccccc1C2=O (stereo unspecified)
- MIC90 [1]: 1.37 µM (≈ 0.667 µg/mL)
- IC50 (Vero): > 62.5 µg/mL

SMILES: CN1CC(c2cccc3c2OCO3)C2(Cc3ccccc3C2=O)C12C(=O)c1ccccc1C2=O (stereo unspecified)
- MIC90 [1]: 2.42 µM (≈ 1.09 µg/mL)
- IC50 (Vero): > 62.5 µg/mL

SMILES: CN(C)c1ccc(C2CN(C)C3(C(=O)c4ccccc4C3=O)C23Cc2ccccc2C3=O)cc1 (stereo unspecified)
- MIC90 [1]: 3.32 µM (≈ 1.5 µg/mL)
- IC50 (Vero): > 62.5 µg/mL

SMILES: COc1ccc(C2CN(C)C3(C(=O)c4ccccc4C3=O)C23Cc2ccccc2C3=O)cc1 (stereo unspecified)
- MIC90 [1]: > 6.25 µM
- IC50 (Vero): > 62.5 µg/mL

SMILES: CN1CC(c2ccc(C(F)(F)F)cc2)C2(Cc3ccccc3C2=O)C12C(=O)c1ccccc1C2=O (stereo unspecified)
- MIC90 [1]: 0.638 µM (≈ 0.303 µg/mL)
- IC50 (Vero): > 62.5 µg/mL

SMILES: CN1CC(c2cccc([N+](=O)[O-])c2)C2(Cc3ccccc3C2=O)C12C(=O)c1ccccc1C2=O (stereo unspecified)
- MIC90 [1]: 0.81 µM (≈ 0.366 µg/mL)
- IC50 (Vero): > 62.5 µg/mL

SMILES: CN1CC(c2ccc(OC(F)(F)F)cc2)C2(Cc3ccccc3C2=O)C12C(=O)c1ccccc1C2=O (stereo unspecified)
- MIC90 [1]: 0.214 µM (≈ 0.105 µg/mL)
- IC50 (Vero): > 62.5 µg/mL

SMILES: CN1CC(c2cncc(-c3ccc(F)cc3)c2)C2(Cc3ccccc3C2=O)C12C(=O)c1ccccc1C2=O (stereo unspecified)
- MIC90 [1]: 0.121 µM (≈ 0.0611 µg/mL)
- IC50 (Vero): > 62.5 µg/mL
